Reference: patent publication US12077503B2, “Substituted cyclic amides and their use as herbicides” (FMC CORPORATION, priority 2015, dated 2024)

How the values were obtained:
Type in all cases: in vivo
[1] = system: barnyardgrass (Echinochloa crus-galli); experiment: Test G Pre-Emergence Protocol; conditions: Echinochloa crus-galli, pre-emergence, 312 h, evaluated after 13 days; for pest or weed control at 15.625 g/ha: 15.625 g ai/ha; for pest or weed control at 15.625 g/ha / pest or weed control at 250 g/ha: read-out: Barnyardgrass damage rating (100=total damage to plant; 0=no damage to plant); for pest or weed control at 62.5 g/ha: 62.5 g ai/ha, 100=total damage to plant, 0=no damage to plant, read-out: Barnyardgrass damage rating; for pest or weed control at 250 g/ha: 250 g ai/ha
How it was run: (§1)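 Glasshouse pre-emergence test: soil-sown seeds, sprayed after 1 d at 15.625, 62.5 or 250 g/ha. Conditions 24/16° C day/night, 14 h light, 65% humidity, watering twice daily. Rating 13 d post-spray (100 = total damage).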

[2] = system: redroot pigweed (Amaranthus retroflexus); experiment: Test G Pre-Emergence Protocol; conditions: Amaranthus retroflexus, pre-emergence, 312 h, evaluated after 13 days; for pest or weed control at 15.625 g/ha: 15.625 g ai/ha; for pest or weed control at 15.625 g/ha / pest or weed control at 250 g/ha: read-out: Pigweed, Redroot damage rating (100=total damage to plant; 0=no damage to plant); for pest or weed control at 62.5 g/ha: 62.5 g ai/ha, 100=total damage to plant, 0=no damage to plant, read-out: Pigweed, Redroot damage rating; for pest or weed control at 250 g/ha: 250 g ai/ha
How it was run: as §1

[3] = system: ivy-leaved morning glory (Ipomoea hederacea); experiment: Test G Pre-Emergence Protocol; conditions: Ipomoea, pre-emergence, 312 h, evaluated after 13 days; for pest or weed control at 15.625 g/ha: 15.625 g ai/ha; for pest or weed control at 62.5 g/ha: 62.5 g ai/ha, 100=total damage to plant, 0=no damage to plant, read-out: Morningglory, Ivy-leaved damage rating
How it was run: as §1

[4] = system: giant foxtail (Setaria faberi); experiment: Test G Pre-Emergence Protocol; conditions: Setaria faberi, pre-emergence, 312 h, evaluated after 13 days; for pest or weed control at 15.625 g/ha: 15.625 g ai/ha; for pest or weed control at 15.625 g/ha / pest or weed control at 250 g/ha: read-out: Foxtail, Giant damage rating (100=total damage to plant; 0=no damage to plant); for pest or weed control at 62.5 g/ha: 62.5 g ai/ha, 100=total damage to plant, 0=no damage to plant, read-out: Foxtail, Giant damage rating; for pest or weed control at 250 g/ha: 250 g ai/ha
How it was run: as §1

[5] = system: velvetleaf (Abutilon theophrasti); experiment: Test G Pre-Emergence Protocol; conditions: Abutilon theophrasti, pre-emergence, 312 h, evaluated after 13 days; for pest or weed control at 15.625 g/ha: 15.625 g ai/ha; for pest or weed control at 15.625 g/ha / pest or weed control at 250 g/ha: read-out: Velvetleaf damage rating (100=total damage to plant; 0=no damage to plant); for pest or weed control at 62.5 g/ha: 62.5 g ai/ha, 100=total damage to plant, 0=no damage to plant, read-out: Velvetleaf damage rating; for pest or weed control at 250 g/ha: 250 g ai/ha
How it was run: as §1

corn (Zea mays) [6] = experiment: Test G Pre-Emergence Protocol; conditions: Zea mays, pre-emergence, 312 h, evaluated after 13 days; for plant injury at 15.625 g/ha: 15.625 g ai/ha; for plant injury at 15.625 g/ha / plant injury at 250 g/ha: read-out: Corn damage rating (100=total damage to plant; 0=no damage to plant); for plant injury at 62.5 g/ha: 62.5 g ai/ha, 100=total damage to plant, 0=no damage to plant, read-out: Corn damage rating; for plant injury at 250 g/ha: 250 g ai/ha
How it was run: as §1

[7] = system: barnyardgrass (Echinochloa crus-galli); experiment: Test G Post-Emergence Protocol; conditions: Echinochloa crus-galli, post-emergence, 312 h, read-out: Barnyardgrass damage rating; for pest or weed control at 15.625 g/ha: 15.625 g ai/ha, evaluated after 13 days (100=total damage to plant; 0=no damage to plant); for pest or weed control at 62.5 g/ha: 62.5 g ai/ha; for pest or weed control at 62.5 g/ha / pest or weed control at 250 g/ha: evaluated after 13 days, 100=total damage to plant, 0=no damage to plant; for pest or weed control at 250 g/ha: 250 g ai/ha
How it was run: (§2)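 Post-emergence herbicidal damage, scored visually 0–100 at 13 days. Application at 15.625, 62.5 or 250 g/ha onto 8-day-old plants grown under glasshouse control.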

[8] = system: redroot pigweed (Amaranthus retroflexus); experiment: Test G Post-Emergence Protocol; conditions: Amaranthus retroflexus, post-emergence, 312 h, read-out: Pigweed, Redroot damage rating; for pest or weed control at 15.625 g/ha: 15.625 g ai/ha, evaluated after 13 days (100=total damage to plant; 0=no damage to plant); for pest or weed control at 62.5 g/ha: 62.5 g ai/ha; for pest or weed control at 62.5 g/ha / pest or weed control at 250 g/ha: evaluated after 13 days, 100=total damage to plant, 0=no damage to plant; for pest or weed control at 250 g/ha: 250 g ai/ha
How it was run: as §2

[9] = system: ivy-leaved morning glory (Ipomoea hederacea); experiment: Test G Post-Emergence Protocol; conditions: Ipomoea, post-emergence, 312 h, read-out: Morningglory, Ivy-leaved damage rating; for pest or weed control at 15.625 g/ha: 15.625 g ai/ha, evaluated after 13 days (100=total damage to plant; 0=no damage to plant); for pest or weed control at 62.5 g/ha: 62.5 g ai/ha; for pest or weed control at 62.5 g/ha / pest or weed control at 250 g/ha: evaluated after 13 days, 100=total damage to plant, 0=no damage to plant; for pest or weed control at 250 g/ha: 250 g ai/ha
How it was run: as §2

[10] = system: giant foxtail (Setaria faberi); experiment: Test G Post-Emergence Protocol; conditions: Setaria faberi, post-emergence, 312 h, read-out: Foxtail, Giant damage rating; for pest or weed control at 15.625 g/ha: 15.625 g ai/ha, evaluated after 13 days (100=total damage to plant; 0=no damage to plant); for pest or weed control at 62.5 g/ha: 62.5 g ai/ha; for pest or weed control at 62.5 g/ha / pest or weed control at 250 g/ha: evaluated after 13 days, 100=total damage to plant, 0=no damage to plant; for pest or weed control at 250 g/ha: 250 g ai/ha
How it was run: as §2

[11] = system: velvetleaf (Abutilon theophrasti); experiment: Test G Post-Emergence Protocol; conditions: Abutilon theophrasti, post-emergence, 312 h, read-out: Velvetleaf damage rating; for pest or weed control at 15.625 g/ha: 15.625 g ai/ha, evaluated after 13 days (100=total damage to plant; 0=no damage to plant); for pest or weed control at 62.5 g/ha: 62.5 g ai/ha; for pest or weed control at 62.5 g/ha / pest or weed control at 250 g/ha: evaluated after 13 days, 100=total damage to plant, 0=no damage to plant; for pest or weed control at 250 g/ha: 250 g ai/ha
How it was run: as §2

corn (Zea mays) [12] = experiment: Test G Post-Emergence Protocol; conditions: Zea mays, post-emergence, 312 h, read-out: Corn damage rating; for plant injury at 15.625 g/ha: 15.625 g ai/ha, evaluated after 13 days (100=total damage to plant; 0=no damage to plant); for plant injury at 62.5 g/ha: 62.5 g ai/ha; for plant injury at 62.5 g/ha / plant injury at 250 g/ha: evaluated after 13 days, 100=total damage to plant, 0=no damage to plant; for plant injury at 250 g/ha: 250 g ai/ha
How it was run: as §2

[13] = read-out: Morningglory, Ivy-leaved damage rating (100=total damage to plant; 0=no damage to plant)

| SMILES | pest or weed control at 15.625 g/ha [1] | pest or weed control at 62.5 g/ha [1] | pest or weed control at 250 g/ha [1] | pest or weed control at 15.625 g/ha [2] | pest or weed control at 62.5 g/ha [2] | pest or weed control at 250 g/ha [2] | pest or weed control at 15.625 g/ha [3, 13] | pest or weed control at 62.5 g/ha [3] | pest or weed control at 15.625 g/ha [4] | pest or weed control at 62.5 g/ha [4] | pest or weed control at 250 g/ha [4] | pest or weed control at 15.625 g/ha [5] | pest or weed control at 62.5 g/ha [5] | pest or weed control at 250 g/ha [5] | plant injury at 15.625 g/ha (corn (Zea mays) [6]) | plant injury at 62.5 g/ha (corn (Zea mays) [6]) | plant injury at 250 g/ha (corn (Zea mays) [6]) | pest or weed control at 15.625 g/ha [7] | pest or weed control at 62.5 g/ha [7] | pest or weed control at 250 g/ha [7] | further results |
| --- | --- | --- | --- | --- | --- | --- | --- | --- | --- | --- | --- | --- | --- | --- | --- | --- | --- | --- | --- | --- | --- |
| CN1C[C@H](c2cccc(C(C)(C)C#N)c2)[C@@H](C(=O)Nc2ccccc2S(C)(=O)=O)C1=O (racemic) [Compound 1784] | 0% | 10% | 10% | 0% | 0% | 0% | 0% | 0% | 10% | 0% | 40% | 0% | 0% | 0% | 0% | 0% | 0% | 0% | 0% | 0% | pest or weed control at 250 g/ha ([3]; 250 g ai/ha, read-out: Morningglory, Ivy-leaved damage rating (100=total damage to plant; 0=no damage to plant)): 10%; pest or weed control at 15.625 g/ha [8]: 0%; pest or weed control at 62.5 g/ha [8]: 0%; pest or weed control at 250 g/ha [8]: 0%; pest or weed control at 15.625 g/ha [9]: 0%; pest or weed control at 62.5 g/ha [9]: 0%; pest or weed control at 250 g/ha [9]: 0%; pest or weed control at 15.625 g/ha [10]: 0%; pest or weed control at 62.5 g/ha [10]: 0%; pest or weed control at 250 g/ha [10]: 0%; pest or weed control at 15.625 g/ha [11]: 0%; pest or weed control at 62.5 g/ha [11]: 0%; pest or weed control at 250 g/ha [11]: 0%; plant injury at 15.625 g/ha (corn (Zea mays) [12]): 0%; plant injury at 62.5 g/ha (corn (Zea mays) [12]): 0%; plant injury at 250 g/ha (corn (Zea mays) [12]): 0% |
| CN1C[C@H](c2ccc(C(F)(F)F)cc2)[C@@H](C(=O)Nc2cnccc2F)C1=O (racemic) [Compound 1744] | 0% | 0% | 0% | 0% | 10% | 10% | 0% | 0% | 0% | 10% | 50% | 0% | 0% | 0% | 0% | 0% | 0% | 0% | 10% | 70% | pest or weed control at 15.625 g/ha [8]: 0%; pest or weed control at 62.5 g/ha [8]: 10%; pest or weed control at 250 g/ha [8]: 30%; pest or weed control at 15.625 g/ha [9]: 0%; pest or weed control at 62.5 g/ha [9]: 0%; pest or weed control at 250 g/ha [9]: 40%; pest or weed control at 15.625 g/ha [10]: 0%; pest or weed control at 62.5 g/ha [10]: 20%; pest or weed control at 250 g/ha [10]: 60%; pest or weed control at 15.625 g/ha [11]: 0%; pest or weed control at 62.5 g/ha [11]: 0%; pest or weed control at 250 g/ha [11]: 10%; plant injury at 15.625 g/ha (corn (Zea mays) [12]): 0%; plant injury at 62.5 g/ha (corn (Zea mays) [12]): 0%; plant injury at 250 g/ha (corn (Zea mays) [12]): 10% |
